According to the supplement of paper PMC4862054:

Tests used:
[1] = tested on: HCC1143; conditions: 72 h
In short: (§1)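 To measure viability, fluorescence at 560/590 nm was read after 2.5 µl CellTiter-Blue had been added for 2 h at 37 °C. Cells from breast cancer lines had been seeded in 20 µl suspension onto 384-well plates pre-loaded with compound dissolved in 5 µl medium and kept for 72 h. EC50 comes from a fitted percent-inhibition dose-response curve censored at the highest concentration, after per-plate normalisation to vehicle and a positive kill control, Z'-factor checks, and removal of rows with zero drug sensitivity score.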

[2] = tested on: MDA-MB-231; conditions: 72 h
In short: as §1

[3] = tested on: Hs578T; conditions: 72 h
In short: as §1

[4] = tested on: HCC1937; conditions: 72 h
In short: as §1

[5] = tested on: MDA-MB-436; conditions: 72 h
In short: as §1

[6] = tested on: MDA-MB-468; conditions: 72 h
In short: as §1

[7] = tested on: HCC1599; conditions: 72 h
In short: as §1

[8] = tested on: BT-549; conditions: 72 h
In short: as §1

[9] = tested on: CAL-120; conditions: 72 h
In short: as §1

[10] = tested on: SK-BR-3; conditions: 72 h
In short: as §1

[11] = tested on: MFM-223; conditions: 72 h
In short: as §1

[12] = tested on: DU-4475; conditions: 72 h
In short: (§2)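 For viability and cell death testing, 384-well plates carried compound at 5 concentrations in 10-fold steps over a compound-specific 10,000-fold range, and breast cancer cell lines were seeded in 20 µl suspension. After 72 h incubation, cell death was read by CellTox Green fluorescence (485/520 nm) before viability was read by CellTiter-Glo luminescence. EC50 was fitted from the dose-response curves and censored at the top concentration. Normalisation on each plate was to 0.1 % DMSO and a positive kill control.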

[13] = tested on: HCC1143; conditions: 72 h; remark: listed apart in the source
In short: as §2

[14] = tested on: HDQ-P1; conditions: 72 h
In short: as §2

[15] = tested on: MDA-MB-231; conditions: 72 h; remark: listed apart in the source
In short: as §2

[16] = tested on: Hs578T; conditions: 72 h; remark: listed apart in the source
In short: as §2

[17] = tested on: HCC1937; conditions: 72 h; remark: listed apart in the source
In short: as §2

[18] = tested on: CAL-51; conditions: 72 h
In short: as §2

[19] = tested on: BT-474; conditions: 72 h
In short: as §2

[20] = tested on: MDA-MB-436; conditions: 72 h; remark: listed apart in the source
In short: as §2

[21] = tested on: MDA-MB-468; conditions: 72 h; remark: listed apart in the source
In short: as §2

[22] = tested on: HCC1599; conditions: 72 h; remark: listed apart in the source
In short: as §2

[23] = tested on: MDA-MB-453; conditions: 72 h
In short: as §2

[24] = tested on: CAL-120; conditions: 72 h; remark: listed apart in the source
In short: as §2

[25] = tested on: MCF-10A; conditions: 72 h
In short: as §2

[26] = tested on: CAL-148; conditions: 72 h
In short: as §2

[27] = tested on: SK-BR-3; conditions: 72 h; remark: listed apart in the source
In short: as §2

[28] = tested on: CAL-85-1; conditions: 72 h
In short: as §2

[29] = tested on: MFM-223; conditions: 72 h; remark: listed apart in the source
In short: as §2

[30] = tested on: MDA-MB-231; experiment: normalised viability (% of control), CellTiter-Blue; higher = more viable cells (about 100 = DMSO control); conditions: incubation time: 72 h
In short: (§3)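 Vehicle (100) and a positive kill control (0) anchored the normalisation of each plate, and Z'-factor was used for quality control. Breast cancer cell lines in 20 µl suspension were incubated 72 h over compound in 5 µl medium in 384-well plates, followed by CellTiter-Blue at 560/590 nm. The value is normalised viability at a single listed concentration of the series.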

[31] = tested on: MDA-MB-468; experiment: as above; conditions: incubation time: 72 h
In short: as §3

[32] = tested on: BT-549; experiment: as above; conditions: incubation time: 72 h
In short: as §3

Structure (SMILES)	EC50, CellTiter-Blue viability [1]	EC50, CellTiter-Blue viability [2]	EC50, CellTiter-Blue viability [3]	EC50, CellTiter-Blue viability [4]	EC50, CellTiter-Blue viability [5]	EC50, CellTiter-Blue viability [6]	EC50, CellTiter-Blue viability [7]	EC50, CellTiter-Blue viability [8]	EC50, CellTiter-Blue viability [9]	EC50, CellTiter-Blue viability [10]	EC50, CellTiter-Blue viability [11]	EC50, CellTiter-Glo [12]	EC50, CellTiter-Glo [13]	EC50, CellTiter-Glo [14]	EC50, CellTiter-Glo [15]	EC50, CellTiter-Glo [16]	EC50, CellTiter-Glo [17]	EC50, CellTiter-Glo [18]	EC50, CellTiter-Glo [19]	EC50, CellTiter-Glo [20]	also measured
COC(=O)C[C@](O)(CCCC(C)(C)O)C(=O)O[C@@H]1C(OC)=C[C@]23CCCN2CCc2cc4c(cc2[C@H]13)OCO4 [Omacetaxine]	46.9 nM	36.3 nM	44 nM	9.68 nM	26.6 nM	35.7 nM	18 nM	32.1 nM	16.9 nM	34.3 nM	45.3 nM	14.4 nM	80.6 nM	39.1 nM	138 nM	68.3 nM	64.3 nM	37.5 nM	299 nM	22.6 nM	EC50, CellTiter-Glo [21]: 45.5 nM; EC50, CellTiter-Glo [22]: 41.1 nM; EC50, CellTiter-Glo [23]: 73.9 nM; EC50, CellTiter-Glo [24]: 93.8 nM; EC50, CellTiter-Glo [25]: 116 nM; EC50, CellTiter-Glo [26]: 56.8 nM; EC50, CellTiter-Glo [27]: 86.7 nM; EC50, CellTiter-Glo [28]: 36.2 nM; EC50, CellTiter-Glo [29]: 102 nM
C#Cc1cccc(Nc2ncnc3cc(OC)c(OCCCCCCC(=O)NO)cc23)c1 [CUDC-101]	361 nM	835 nM	394 nM	770 nM	969 nM	200 nM	295 nM	1620 nM	294 nM	101 nM	145 nM	1500 nM	783 nM	3360 nM	689 nM	1920 nM	1470 nM	847 nM	1970 nM	1640 nM	normalised viability ([30]; 10 nM): 87.8%; normalised viability ([30]; 1000 nM): 46%; normalised viability ([30]; 10000 nM): 3.42%; normalised viability ([31]; 10 nM): 100%; normalised viability ([31]; 1000 nM): 25.5%; normalised viability ([31]; 10000 nM): 8.4%; normalised viability ([32]; 10 nM): 90.3%; normalised viability ([32]; 1000 nM): 64.6%; normalised viability ([32]; 10000 nM): 9.13%; EC50, CellTiter-Glo [21]: 202 nM; EC50, CellTiter-Glo [22]: 911 nM; EC50, CellTiter-Glo [23]: 123 nM; EC50, CellTiter-Glo [24]: 3230 nM; EC50, CellTiter-Glo [25]: 242 nM; EC50, CellTiter-Glo [26]: 1280 nM; EC50, CellTiter-Glo [27]: 507 nM; EC50, CellTiter-Glo [28]: 212 nM; EC50, CellTiter-Glo [29]: 190 nM
CC(=O)O[C@H]1C(=O)[C@@]2(C)[C@H]([C@H](OC(=O)c3ccccc3)[C@]3(O)C[C@H](OC(=O)[C@H](O)[C@@H](NC(=O)c4ccccc4)c4ccccc4)C(C)=C1C3(C)C)[C@]1(OC(C)=O)CO[C@@H]1C[C@@H]2O [Paclitaxel]	7.4 nM	2.29 nM	5.2 nM	4.22 nM	4.49 nM	2.7 nM	111 nM	2.7 nM	3.55 nM	2.93 nM	4.49 nM	44 nM	3.37 nM	2.81 nM	10.7 nM	6.32 nM	2.62 nM	7.96 nM	7.94 nM	4.07 nM	normalised viability ([30]; 1 nM): 79.2%; normalised viability ([30]; 100 nM): 19.9%; normalised viability ([30]; 1000 nM): 22.1%; normalised viability ([31]; 1 nM): 93.5%; normalised viability ([31]; 100 nM): 47.2%; normalised viability ([31]; 1000 nM): 49.4%; normalised viability ([32]; 1 nM): 83.7%; normalised viability ([32]; 100 nM): 21.1%; normalised viability ([32]; 1000 nM): 20.4%; EC50, CellTiter-Glo [21]: 3.47 nM; EC50, CellTiter-Glo [22]: 16.9 nM; EC50, CellTiter-Glo [23]: 22.6 nM; EC50, CellTiter-Glo [24]: 6.96 nM; EC50, CellTiter-Glo [25]: 3.65 nM; EC50, CellTiter-Glo [26]: 1.96 nM; EC50, CellTiter-Glo [27]: 0.72 nM; EC50, CellTiter-Glo [28]: 4.73 nM; EC50, CellTiter-Glo [29]: 5.86 nM
